The values that follow come from patent publication US4459302A, “Acyl-1H-1,2,4-triazole derivatives” (Gruppo Lepetit, S.p.A., priority 1978, dated 1984).

Each structure is given as a SMILES string.

The subject of one assay is female Syrian golden hamsters. Put plainly: antifertility (post-coital post-implantation) activity, subcutaneous, hamsters. Particulars: Mesocricetus auratus, sc, 336 h; s.c. hamster; dosed days 4-8 of pregnancy, autopsy day 14; read-out: ED50 (100% activity, absence of live fetuses, in 50% of the animals). The class given is in vivo, Syrian golden hamster. The text has this: Fertility regulation can usually be achieved in a number of ways through the administration of hormonal substances. These can involve ovulation inhibition, ova transport, fertilization, implantation of the zygote, resorption of the fetus or abortion. Only with ovulation inhibition has there developed a successful method that is clinically useful. The compounds of this invention allow an entirely new approach to this problem in which a non-hormonal compound can be administered parenterally, orally or by intravaginal route once or more times as needed after a "missed period" or to induce termination of a more advanced pregnancy. Representative experiments for assessing antifertility activity were carried out with female Syrian golden hamsters weighing 100 to 130 g. The animals were mated and the presence of sperm in the vagina was taken as evidence of mating. The day sperm was detected and considered day one of pregnancy, since in our laboratories and those of other investigators 90 to 100% of animals that mate as evidenced by vaginal sperm are pregnant.
Pregnancy was later confirmed at the time of autopsy by presence of fetuses or implantation sites in the uterus. Even if an animal aborts the fetus, implantation scars still remain as evidence that the animal has been pregnant. […] The animals were autopsied on day 14 of pregnancy and the uteri were examined for evidence of pregnancy (implantation sites, fetalresorption or live fetuses), hemorrhage, and evidence of abnormalities of the uterus, placenta or fetuses. A compound was considered to be active if there was a reduction of live fetuses in at least 60% of the treated animals and the presence of implantation sites proves the animal to have been pregnant.
The compounds were then studied for dose-activity relationship and the corresponding ED50 values, i.e. 100% activity (absence of live fetuses) in 50% of the animals, were also detrmined. The following Table reports the ED50 values of some representative compounds of the invention as well as that of the above mentioned known substance: […]
With `COc1cccc(-c2nc(-c3ccccc3C)n(C)n2)c1` [1-Methyl-3-(3-methoxyphenyl)-5-(2-methylphenyl)-1H-1,2,4,-triazole, reference compound], the median effective dose (ED50) (commonly the midpoint of the dose-response relation) was more than 10 mg/kg.
In the case of `COc1cccc(-c2nc(-c3ccccc3C)n(C(C)=O)n2)c1` [Example 1, 1-Acetyl-3-(3-methoxyphenyl)-5-(2-methylphenyl)-1H-1,2,4-triazole], the ED50 was 0.05 mg/kg.
As for `CCC(=O)n1nc(-c2cccc(OC)c2)nc1-c1ccccc1C` [Example 2, 1-Propionyl-3-(3-methoxyphenyl)-5-(2-methylphenyl)-1H-1,2,4-triazole], the 50% effective dose (ED50) was 0.07 mg/kg.
`COc1cccc(-c2nc(-c3ccccc3C)n(C(=O)C(C)(C)C)n2)c1` [Example 3, 1-(2,2-Dimethylpropionyl)-3-(3-methoxyphenyl)-5-(2-methylphenyl)-1H-1,2,4-triazole]: the ED50 was found to be 0.15 mg/kg.
Regarding `COc1cccc(-c2nc(-c3ccc(Cl)cc3C)n(C(C)=O)n2)c1` [Example 5, 1-Acetyl-5-(4-chloro-2-methylphenyl)-3-(3-methoxyphenyl)-1H-1,2,4-triazole], the ED50 was 0.06 mg/kg.
Consider `CCc1ccccc1-c1nc(-c2cccc(OC)c2)nn1C(C)=O` [Example 6, 1-Acetyl-5-(2-ethylphenyl)-3-(3-methoxyphenyl)-1H-1,2,4-triazole], for which the ED50 worked out at 0.04 mg/kg.
As to `COc1cccc(-c2nc(-c3ccccc3COC(C)=O)n(C(C)=O)n2)c1` [Example 7, 1-Acetyl-5-(2-acetoxymethylphenyl)-3-(3-methoxyphenyl)-1H-1,2,4-triazole], the ED50 amounted to 0.04 mg/kg.
In the case of `CCOC(=O)n1nc(-c2cccc(OC)c2)nc1-c1ccccc1CC` [Example 8, 1-Carbethoxy-5-(2-ethylphenyl)-3-(3-methoxyphenyl)-1H-1,2,4-triazole], the ED50 came out at 0.05 mg/kg.
For `CCc1ccccc1-c1nc(-c2cccc(OC)c2)nn1C(=O)OC` [Example 9, 1-Carbomethoxy-5-(2-ethylphenyl)-3-(3-methoxyphenyl)-1H-1,2,4-triazole], the ED50 was 0.05 mg/kg.
Take `CCOC(=O)n1nc(-c2cccc(OC)c2)nc1-c1ccccc1C` [Example 10, 1-Carbethoxy-3-(3-methoxyphenyl)-5-(2-methylphenyl)-b 1H-1,2,4-triazole]: the ED50 is 0.06 mg/kg.
The same measure, in the same setting: the same measure for `COc1cccc(-c2nc(-c3ccccc3C)n(C(=O)c3ccccc3)n2)c1` [Example 11, 1-Benzoyl-3-(3-methoxyphenyl)-5-(2-methylphenyl)-1H-1,2,4-triazole]: 0.1 mg/kg.
In the case of `COc1cccc(-c2nc(-c3ccccc3C)n(C(=O)Nc3ccccc3)n2)c1` [Example 13, 3-(3-Methoxyphenyl)-5-(2-methylphenyl)-1-phenylcarbamoyl-1H-1,2,4-triazole], the ED50 amounted to 0.05 mg/kg.
For the molecule `CCNC(=O)n1nc(-c2cccc(OC)c2)nc1-c1ccccc1C` [Example 14], the ED50 worked out at 0.15 mg/kg.
With `CCc1ccccc1-c1nc(-c2cccc(OC)c2)nn1C(=O)NC` [Example 15, 5-(2-Ethylphenyl)-3-(3-methoxyphenyl)-1-methylcarbamoyl-1H-1,2,4-triazole], the ED50 amounted to 0.05 mg/kg.
Regarding `CCc1ccccc1-c1nc(-c2cccc(OC)c2)nn1C(=O)Nc1ccccc1` [Example 16], the 50% effective dose (ED50) is 0.05 mg/kg.
As to `CCc1ccccc1-c1nc(-c2cccc(OC)c2)nn1C(=O)Nc1ccc(OC)cc1` [Example 17, 5-(2-Ethylphenyl)-3-(3-methoxyphenyl)-1-(4-methoxyphenylcarbamoyl)-1H-1,2,4-triazole], the ED50 worked out at 0.07 mg/kg.
On to `CCc1ccccc1-c1nc(-c2cccc(OC)c2)nn1C(=O)Nc1ccccc1Cl` [Example 18], for which the ED50 came to 0.05 mg/kg.
As for `CCc1ccccc1-c1nc(-c2cccc(OC)c2)nn1C(=O)Nc1ccc(Cl)cc1` [Example 19, 1-(4-Chlorophenylcarbamoyl)-5-(2-ethylphenyl)-3-(3-methoxyphenyl)-1H-1,2,4-triazole], the median effective dose (ED50) came to 0.05 mg/kg.
On the same count and under the same terms, the same measure for `CCc1ccccc1-c1nc(-c2cccc(OC)c2)nn1C(=O)Nc1ccc([N+](=O)[O-])cc1` [Example 20, 5-(2-Ethylphenyl)-3-(3-methoxyphenyl)-1-(4-nitrophenyl)carbamoyl-1H-1,2,4-triazole]: 0.05 mg/kg; for `CCc1ccccc1-c1nc(-c2cccc(OC)c2)nn1C(=O)Nc1ccc(C)cc1` [Example 21a, 5-(2-Ethylphenyl)-3-(3-methoxyphenyl)-1-(4-methylphenylcarbamoyl)-1H-1,2,4-triazole]: 0.05 mg/kg; for `CCc1ccccc1-c1nc(-c2cccc(OC)c2)n(C(=O)Nc2ccc(C)cc2)n1` [Example 21b, 3-(2-ethylphenyl)-5-(3-methoxyphenyl)-1-(4-methylphenylcarbamoyl)-1H-1,2,4-triazole]: 0.04 mg/kg.
In the case of `COc1cccc(-c2nc(-c3ccccc3C)n(C(=O)Nc3ccc(C)cc3)n2)c1` [Example 22a, 3-(3-methoxyphenyl)-5-(2-methylphenyl)-1-(4-methylphenylcarbamoyl)-1H-1,2,4-triazole], the ED50 was determined as 0.08 mg/kg.
On to `COc1cccc(-c2nc(-c3ccccc3C)nn2C(=O)Nc2ccc(C)cc2)c1` [Example 22b, 5-(3-methoxyphenyl)-3-(2-methylphenyl)-1-(4-methylphenylcarbamoyl)-1H-1,2,4-triazole], for which the ED50 was found to be 0.08 mg/kg.
`COc1cccc(-c2n[nH]c(-c3ccccc3COC(C)=O)n2)c1` [Example 24, 5-(2-Acetoxymethylphenyl)-3-(3-methoxyphenyl)-1H-1,2,4-triazole]: the ED50 is 0.04 mg/kg.

Staying with this assay, now noted: hamster, 10 mg/kg s.c. daily for 5 days, days 4-8 of pregnancy.
For `COc1cccc(-c2nc(-c3ccccc3C)n(C)n2)c1` [1-Methyl-3-(3-methoxyphenyl)-5-(2-methylphenyl)-1H-1,2,4,-triazole, reference compound], the “activity by the criterion: reduction of live fetuses in at least 60% of the treated animals” value is listed as “much less active”.
